# Source: patent US7524866B2, “Prevention and treatment of androgen—deprivation induced osteoporosis” (GTx, Inc., priority 2001, dated 2009)
# What was measured:
# [1] = system: orchidectomized rats (ORX); assay: Three point bending test of the femoral shaft (Example 4); type: in vivo, rat; settings: 12 weeks, mean
# Experimental: (§1) Eight month-old male Sprague Dawley rats were either sham-operated (SHAM) or orchidectomized (ORX). Treatment began immediately following surgery. The treatment groups were as described in Table 5. Bone strength was evaluated using a compression test at the vertebral body, a three point bending test at the femoral shaft, a compression test at the distal femur and a cantilever compression test of the femoral neck. Prior to mechanical testing, all samples were thawed in cold saline and carefully cleaned of any remaining adherent soft tissue.
# [2] = system: orchidectomized rats (ORX); assay: Static and dynamic bone histomorphometry of the proximal tibia (Example 4); type: in vivo, rat; settings: for loss of trabecular bone volume at the proximal tibia: 10 mg/kg/d Tor; for loss of trabecular bone volume at the proximal tibia / Orx-induced increase in bone turnover parameters at the proximal tibia: E 0.2 mg/kg/d; for Orx-induced increase in bone turnover parameters at the proximal tibia: Tor 5 and 10 mg/kg/d, p<0.05 vs. Orx+vehicle; for Bone Form Rate, Bone Volume Ref / Bone Form. Rate, Bone Surface Ref / Bone Formation Rate, Tissue Volume Ref / Mineral Apposition Rate / Mineralizing Surface / Osteoclast Number/Bone Surface / Osteoclast Surface / Trabecular Bone Volume / Trabecular Number / Trabecular Separation / Trabecular Thickness: proximal tibia, 6 wks, mean
# Experimental: Eight month-old male Sprague Dawley rats were either sham-operated (SHAM) or orchidectomized (ORX). Treatment began immediately following surgery. The treatment groups were as described in Table 5.
# Animals were given calcein (intraperitoneally) 12 and 2 days prior to sacrifice. Femurs and lumbar vertebra (L5) were preserved frozen wrapped in saline-soaked gauze. Tibiae and lumbar vertebrae (L4) were preserved in 10% formalin for 48 hours, then transferred to 70% ethanol for long-term storage.
# Histology and Static and Dynamic Bone Histomorphometry: Approximately 1.1 cm of the proximal tibia was cut away and the frontal face was trimmed with a low-speed diamond wheel saw to expose the marrow cavity. The L4 lumbar vertebral body was prepared from the lumbar vertebra by trimming off the processes with a slow-speed diamond saw. Each proximal tibia and lumbar vertebral body was dehydrated in a series of ascending ethanol (EtOH) concentrations. Following dehydration, the bone samples were infiltrated and then embedded in a methyl methacrylate-dibutyl phthalate plastic composite. Embedded samples of the proximal tibiae were sectioned using a Leitz motorized rotary microtome equipped with a tungsten-carbide microtome knife. Once the blocks had been trimmed and faced to the sampling site, a 4-micron section was stained with Goldner's trichrome stain for bright field microscopy and an 8-micron section was left unstained for epifluorescent microscopy. Embedded lumbar vertebral body samples were also sectioned using a Leitz motorized rotary microtome equipped with a tungsten-carbide microtome knife. Once the blocks had been trimmed and faced to the sampling site, a 4-micron section was stained with Goldner's trichrome stain for bright field microscopy and an 8-micron section was left unstained for epifluorescent microscopy.
# The cancellous bone in the secondary spongiosa of the proximal tibia was evaluated in a region of interest (ROI) that was 1.0 mm distal to the lowest point of the growth plate in a rectilinear region of 3×2 fields. The cancellous bone in the marrow cavity of the lumbar vertebral body was evaluated in a ROI that was approximately 0.5 mm away from the end plates and dorsal and ventral cortices.
# The bone histomorphometry was performed using an OsteoMeasure software program (OsteoMetrics, Inc., Atlanta, Ga.) interfaced with a Nikon Eclipse E400 light/epifluorescent microscope and video subsystem. All slides were analyzed in a blinded manner. Total tissue area, trabecular bone area, trabecular bone perimeter and osteoclast perimeter and number were measured on 4 μm Goldner's trichrome-stained sections. Percent trabecular bone area, trabecular number, trabecular thickness, trabecular separation, osteoclast perimeter as a percentage of bone surface and osteoclast number per unit of bone surface were then calculated according to standardized formulae. For deriving the dynamic parameters, single-labeled calcein perimeter, double-labeled calcein perimeter and interlabel width (label thickness) were measured on 8 μm unstained sections. Mineralizing surface, mineral apposition rate and bone formation rate-surface, bone and tissue referents were calculated.
# [3] = system: orchidectomized rats (ORX); assay: Compression test of the distal femur (Example 4); type: in vivo, rat; settings: for Elastic Modulus / Energy / Maximum Load / Stiffness / Toughness / Ultimate Strength: distal femur
# Experimental: as §1
# [4] = system: men with high-grade prostatic intraepithelial neoplasia (HGPIN); assay: Phase IIa clinical trial: bone turnover markers (serum calcium, alkaline phosphatase) in men treated with Toremifene; type: in vivo, human; settings: 18 men with HGPIN, 60 mg/d Toremifene
# Experimental: In a Phase IIa clinical trial to determine whether Toremifene has chemopreventive activity against prostate cancer, 18 men with high-grade prostatic intraepithelial neoplasia (HGPIN) were treated with 60 mg/d of Toremifene for 4 months.
# [5] = Toremifene 5 mg/kg/d, Estradiol 0.2 mg/kg/d
# [6] = Week 12, 5 mg/kg/d of Toremifene, Estradiol 0.2 mg/kg/d
# [7] = week 6, mean, Toremifene 5 mg/kg/d, Estradiol 0.2 mg/kg/d
# [8] = week 6, mean, Toremifene 10 mg/kg/d
# [9] = week 12, mean, Toremifene 5 mg/kg/d, Estradiol 0.2 mg/kg/d
# [10] = week 12, mean, Toremifene 10 mg/kg/d
smiles,measurement,setting,value
CN(C)CCOc1ccc(/C(=C(/CCCl)c2ccccc2)c2ccccc2)cc1 [Toremifene],Elastic Modulus,[1]; [5],4505.90 MPa
same,Energy,[1]; [5],83.40 mJ
same,Maximum Load,[1]; [5],263.54 N
same,Stiffness,[1]; [5],944.78 N/mm
same,Toughness,[1]; [5],5.67 MJ/m^3
same,Ultimate Strength,[1]; [5],150.45 N/mm^2
same,Elastic Modulus,[1]; Toremifene 10 mg/kg/d,4557.46 MPa
same,Energy,[1]; Toremifene 10 mg/kg/d,88.58 mJ
same,Maximum Load,[1]; Toremifene 10 mg/kg/d,272.56 N
same,Stiffness,[1]; Toremifene 10 mg/kg/d,910.47 N/mm
same,Toughness,[1]; Toremifene 10 mg/kg/d,6.16 MJ/m^3
same,Ultimate Strength,[1]; Toremifene 10 mg/kg/d,161.23 N/mm^2
same,loss of trabecular bone volume at the proximal tibia,[2],very effective in preventing loss of trabecular bone volume
same,Orx-induced increase in bone turnover parameters at the proximal tibia,[2],significantly reduced the Orx-induced elevation in bone turnover parameters
same,"Bone Form Rate, Bone Volume Ref",[2]; [5],58.20 %/yr
same,"Bone Form. Rate, Bone Surface Ref",[2]; [5],10.78 um^3/um^2/yr
same,"Bone Formation Rate, Tissue Volume Ref",[2]; [5],2.30 %/yr
same,Mineral Apposition Rate,[2]; [5],0.32 um/day
same,Mineralizing Surface,[2]; [5],6.67%
same,Osteoclast Number/Bone Surface,[2]; [5],3.98 #/mm
same,Osteoclast Surface,[2]; [5],6.61%
same,Trabecular Bone Volume,[2]; [5],5.33%
same,Trabecular Number,[2]; [5],1.30 #/mm
same,Trabecular Separation,[2]; [5],837.67 um
same,Trabecular Thickness,[2]; [5],41.39 um
same,"Bone Form Rate, Bone Volume Ref",[2]; Toremifene 10 mg/kg/d,21.26 %/yr
same,"Bone Form. Rate, Bone Surface Ref",[2]; Toremifene 10 mg/kg/d,4.78 um^3/um^2/yr
same,"Bone Formation Rate, Tissue Volume Ref",[2]; Toremifene 10 mg/kg/d,2.07 %/yr
same,Mineral Apposition Rate,[2]; Toremifene 10 mg/kg/d,0.34 um/day
same,Mineralizing Surface,[2]; Toremifene 10 mg/kg/d,3.02%
same,Osteoclast Number/Bone Surface,[2]; Toremifene 10 mg/kg/d,3.33 #/mm
same,Osteoclast Surface,[2]; Toremifene 10 mg/kg/d,5.27%
same,Trabecular Bone Volume,[2]; Toremifene 10 mg/kg/d,8.81%
same,Trabecular Number,[2]; Toremifene 10 mg/kg/d,1.85 #/mm
same,Trabecular Separation,[2]; Toremifene 10 mg/kg/d,570.89 um
same,Trabecular Thickness,[2]; Toremifene 10 mg/kg/d,45.54 um
same,"bone strength, compression test of the distal femur",[3]; Week 6,bone strength similar to that of Sham-operated animals
same,"bone strength, compression test of the distal femur",[3]; [6],maintained similar strength
same,"bone strength, compression test of the distal femur","[3]; Week 12, 10 mg/kg/d Toremifene",small decrease in strength
same,Elastic Modulus,[3]; [7],535.08 MPa
same,Energy,[3]; [7],56.00 mJ
same,Maximum Load,[3]; [7],469.64 N
same,Stiffness,[3]; [7],4058.07 N/mm
same,Toughness,[3]; [7],0.81 MJ/m^3
same,Ultimate Strength,[3]; [7],20.54 N/mm^2
same,Elastic Modulus,[3]; [8],440.77 MPa
same,Energy,[3]; [8],66.19 mJ
same,Maximum Load,[3]; [8],447.29 N
same,Stiffness,[3]; [8],3549.70 N/mm
same,Toughness,[3]; [8],0.91 MJ/m^3
same,Ultimate Strength,[3]; [8],18.47 N/mm^2
same,Elastic Modulus,[3]; [9],379.32 MPa
same,Energy,[3]; [9],53.13 mJ
same,Maximum Load,[3]; [9],458.79 N
same,Stiffness,[3]; [9],3175.07 N/mm
same,Toughness,[3]; [9],0.69 MJ/m^3
same,Ultimate Strength,[3]; [9],18.09 N/mm^2
same,Elastic Modulus,[3]; [10],418.05 MPa
same,Energy,[3]; [10],45.57 mJ
same,Maximum Load,[3]; [10],411.45 N
same,Stiffness,[3]; [10],3366.63 N/mm
same,Toughness,[3]; [10],0.62 MJ/m^3
same,Ultimate Strength,[3]; [10],16.81 N/mm^2
same,"alkaline phosphatase, change compared to baseline (mean)","[4]; Day 60, p<0.001",−18.7
same,"alkaline phosphatase, change compared to baseline (mean)","[4]; Day 120, p<0.001",−21.0
same,"serum calcium, reduction from baseline (mean)","[4]; Day 120, p=0.005",−0.12
C[C@]12CC[C@@H]3c4ccc(O)cc4CC[C@H]3[C@@H]1CC[C@@H]2O [17-β-Estradiol],Elastic Modulus,[1]; [5],5149.41 MPa
same,Energy,[1]; [5],98.61 mJ
same,Maximum Load,[1]; [5],287.22 N
same,Stiffness,[1]; [5],986.71 N/mm
same,Toughness,[1]; [5],6.85 MJ/m^3
same,Ultimate Strength,[1]; [5],172.51 N/mm^2
same,loss of trabecular bone volume at the proximal tibia,[2],very effective in preventing loss of trabecular bone volume
same,Orx-induced increase in bone turnover parameters at the proximal tibia,[2],significantly inhibited
same,"Bone Form Rate, Bone Volume Ref",[2]; [5],42.70 %/yr
same,"Bone Form. Rate, Bone Surface Ref",[2]; [5],10.63 um^3/um^2/yr
same,"Bone Formation Rate, Tissue Volume Ref",[2]; [5],3.13 %/yr
same,Mineral Apposition Rate,[2]; [5],0.43 um/day
same,Mineralizing Surface,[2]; [5],5.31%
same,Osteoclast Number/Bone Surface,[2]; [5],3.77 #/mm
same,Osteoclast Surface,[2]; [5],6.35%
same,Trabecular Bone Volume,[2]; [5],8.26%
same,Trabecular Number,[2]; [5],1.75 #/mm
same,Trabecular Separation,[2]; [5],572 um
same,Trabecular Thickness,[2]; [5],47.11 um
same,"bone strength, compression test of the distal femur",[3]; Week 6,highest values in all groups
same,"bone strength, compression test of the distal femur",[3]; [6],highest values at Week 12
same,Elastic Modulus,[3]; [7],579.48 MPa
same,Energy,[3]; [7],66.00 mJ
same,Maximum Load,[3]; [7],561.45 N
same,Stiffness,[3]; [7],4758.55 N/mm
same,Toughness,[3]; [7],0.91 MJ/m^3
same,Ultimate Strength,[3]; [7],22.89 N/mm^2
same,Elastic Modulus,[3]; [9],473.02 MPa
same,Energy,[3]; [9],55.94 mJ
same,Maximum Load,[3]; [9],487.94 N
same,Stiffness,[3]; [9],3714.71 N/mm
same,Toughness,[3]; [9],0.78 MJ/m^3
same,Ultimate Strength,[3]; [9],20.66 N/mm^2
